Literature values as cited in patent US20260258086A1 (priority 2021, published 2026).

Settings: in vivo; cited from earlier work

CC[C@H](C)[C@@H]1NC(=O)CNC(=O)[C@@H]2Cc3c([nH]c4cc(O)ccc34)[S@+]([O-])CC(NC(=O)CNC1=O)C(=O)N[C@@H](CC(N)=O)C(=O)N1C[C@H](O)C[C@H]1C(=O)N[C@@H]([C@@H](C)[C@@H](O)CO)C(=O)N2 [α-amanitin]
toxicity: 0.05 to 0.1 mg/kg
